Broadly, the Ki is a measure of affinity in units of concentration, obtained from inhibition or displacement. A high value points to lower affinity.

The structures appear in SMILES notation. Where only a bound is given, the exact number is not on record here.

The target in one assay is Mu-type opioid receptor (Homo sapiens, UniProt P35372).
The target in a further assay is T1, Adenosine receptor A1 (Homo sapiens, UniProt P30542).
T1 sequence (P30542 whole entry): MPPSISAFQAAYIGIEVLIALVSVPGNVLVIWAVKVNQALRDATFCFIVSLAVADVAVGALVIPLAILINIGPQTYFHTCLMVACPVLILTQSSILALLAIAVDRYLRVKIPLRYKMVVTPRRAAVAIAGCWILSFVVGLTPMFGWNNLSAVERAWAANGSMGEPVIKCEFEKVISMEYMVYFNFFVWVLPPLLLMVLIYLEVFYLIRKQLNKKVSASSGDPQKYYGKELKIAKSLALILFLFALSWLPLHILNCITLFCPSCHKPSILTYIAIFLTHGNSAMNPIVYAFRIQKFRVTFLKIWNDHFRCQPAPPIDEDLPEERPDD
The experiment in a line: Binding affinity to adenosine receptor A1.

Chain of Mu-type opioid receptor (P35372 whole entry): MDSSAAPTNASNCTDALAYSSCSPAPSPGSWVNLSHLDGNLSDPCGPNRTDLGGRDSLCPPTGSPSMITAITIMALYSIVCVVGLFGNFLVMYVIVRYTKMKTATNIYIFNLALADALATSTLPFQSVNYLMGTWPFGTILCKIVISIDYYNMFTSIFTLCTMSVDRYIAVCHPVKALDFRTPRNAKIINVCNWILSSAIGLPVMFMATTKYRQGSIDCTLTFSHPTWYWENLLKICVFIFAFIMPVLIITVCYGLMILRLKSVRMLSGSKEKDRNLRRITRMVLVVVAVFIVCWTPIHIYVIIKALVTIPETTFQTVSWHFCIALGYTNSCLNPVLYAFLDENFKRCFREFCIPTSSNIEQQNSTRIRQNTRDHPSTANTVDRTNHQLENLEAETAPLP

`CCCn1c(=O)c2[nH]c(C3CCCC3)nc2n(CCC)c1=O` [1,3-DIPROPYL-8-CYCLOPENTYLXANTHINE [DPCPX]] returned a Ki at Mu-type opioid receptor of more than 100 µM. Turning to `C[C@@H](NC(=O)[C@@H](N)Cc1ccc(O)cc1)C(=O)NCC(=O)N(C)[C@@H](Cc1ccccc1)C(=O)NCCO` [DAMGO], at Adenosine receptor A1, the Ki was more than 100 µM.

Consider `C=CCN1CC[C@]23c4c5ccc(O)c4O[C@H]2C(=O)CC[C@@]3(O)[C@H]1C5` [NALOXONE], for which the Ki at Adenosine receptor A1 is more than 50 µM.
